# Reference: patent US9491946B2, “Ag loaded silica nanoparticle/nanogel formulation, methods of making, and methods of use” (University of Central Florida Research Foundation, Inc., priority 2011, dated 2016)
# Assays:
# [1] = test system: E. coli, ATCC 35218; assay: bacterial growth inhibition in LB broth using turbidity (Example 2); assay type: cell-based, Escherichia coli; details: 24 hours, 37° C., OD 600 nm
# Experimental: (§1) Antibacterial properties of C—S CuSiNP and AgSiNG materials were evaluated against a gram positive Bacillus subtilis (B. subtilis, ATCC 9372) and a gram negative Escherichia coli (E. coli, ATCC 35218) organism. For all antibacterial assays, bacterial concentration of 10^5 cells/mL was considered. Copper sulfate with same metallic copper concentration was used as positive controls and silica nanoparticle (without Cu loading) was used as negative control.
# (§2) Two sets of different concentrations of C—S CuSiNP were made in LB broth (0.49, 1.2, 2.4, 4.9, 7.2 and 9.8 ppm copper concentration) to a final volume of 10 mL. 250 μL (10^5 cells/mL) of E. coli and B. subtilis were added to set 1 and 2 respectively. Silica nanoparticle was used as negative control and copper sulfate with equivalent amount of copper was used as positive control. […]
# (§3) The growth inhibitory effects of C—S CuSiNP and AgSiNG against E. coli and B. subtilis were studied in liquid media (FIG. 2.3 and FIG. 2.4). Bacterial growth with different concentrations of C—S CuSiNP and AgSiNG (0.49 to 9.8 μg mL^−1) was monitored after 24 hours of incubation at 37° C. by measuring the optical density at 600 nm using Teysche800 spectrophotometer. Since the turbidity of silica based material can interfere with the optical density reading, the background measurement was subtracted to calculate the final reading.
# [2] = test system: B. subtilis, ATCC 9372; assay: growth inhibition assay by turbidity (OD 600 nm), Mueller Hinton II broth; assay type: cell-based, Bacillus subtilis; details: equivalent metallic Ag concentration
# Experimental: (§4) Antibacterial properties of AgSiNP200 and AgSiNP50 were evaluated against Gram-positive, Bacillus subtilis (B. subtilis, ATCC 9372) and Staphylococcus aureus (S. aureus, ATTC 25923) and a Gram-negative, Escherichia coli (E. coli, ATCC 35218) organism. […] All the bacteria were obtained from the UCF Department of Molecular Biology and Microbiology Preparatory Laboratories) by Microbiology Department, University of Central Florida, Orlando. All the antibacterial assays were done using Mueller Hinton II medium (Fulka Analytical, USA).
# (§5) The bacterial inhibition studies for the AgSiNP200 and AgSiNP50 were done using a method as described by Rastogi et al.^41. The procedure is briefly described below. Different concentrations of AgSiNP200 (metallic silver concentrations of 63.5 μg/ml, 38.1 μg/ml, 19.05 μg/ml, 9.53 μg/ml, 4.77 μg/ml, 2.68 μg/ml, 1.34 μg/ml, 953 ng/ml, 477 ng/ml, 95.3 ng/ml and 47.7 ng/ml) and AgSiNP50 (metallic silver concentrations of 30.24 μg/ml, 20.16 μg/ml, 10.08 μg/ml, 5.04 μg/ml, 2.52 μg/ml, 1.26 μg/ml, 630 ng/ml and 63 ng/ml) were prepared in sterile Mueller Hinton II broth in sterile tubes. To achieve uniform growth for this comparative study, all the tubes contained same amount of broth. We have used 0.85% of sterile saline to make up the volume to 0.9 ml in each tube. In the next step, 0.1 ml of 10^6 CFU/ml of bacteria culture was added to each tube. […]
# [3] = test system: E. coli, ATCC 35218; assay type: cell-based, Escherichia coli; details: equivalent metallic Ag concentration
# Experimental: as §4, §5
# [4] = test system: S. aureus, ATTC 25923; assay type: cell-based, Staphylococcus aureus; details: equivalent metallic Ag concentration
# Experimental: as §4, §5
# [5] = test system: B. subtilis, ATCC 9372; assay: bacterial growth inhibition in LB broth using turbidity (Example 2); assay type: cell-based, Bacillus subtilis; details: 24 hours, 37° C., OD 600 nm
# Experimental: as §1, §2, §3
compound,measurement,setting,value
"O=[N+]([O-])[O-].[Ag+] [Ag nitrate, silver nitrate]",silver concentration at which growth inhibition can be seen,[1],2.4 ppm
same,growth inhibition result in words (controls versus AgSiNP nanoformulations),[2],no significant difference in growth inhibition results
same,growth inhibition result in words (controls versus AgSiNP nanoformulations),[3],no significant difference in growth inhibition results
same,growth inhibition result in words (controls versus AgSiNP nanoformulations),[4],no significant difference in growth inhibition results
same,silver concentration at which growth inhibition can be seen,[5],2.4 ppm
